Test results reported in patent publication US4756710A, “pH-Mediated drug delivery system” (Merck & Co., Inc., priority 1986, dated 1988).
Values after ≈ are worked out from the molar mass of the structure shown. Where a name gives a salt, the structure may show the parent alone. Read-outs that look alike come from different tables or passages of the source.

Legend:
[1] = in water at 25° C.; reported; cited from earlier work
[2] = from equation (1); 30 percent ethanol/water; polyurethane membrane 0.0038 cm
[3] = Solubility in mineral oil; format: physicochemical
[4] = Description: The following operation illustrates with timolol the relationship among pH, the concentration C, of the timolol base in solution in the reservoir, and the flux calculated from the data as well as the observed flux obtained by placing the compositions behind the selected membrane in a diffusion cell and measuring the rate of release into an isotonic phosphate buffer of pH 7.4.
As a first step in determining the relationship between pH, concentration of timolol, its pK and the pH of the reservoir, an aqueous solution of 7.0 mg/ml of timolol was placed in a diffusion measuring cell fitted with a 1.5 mil (0.0038 cm) thick silicone membrane and the transport of timolol from the reservoir of the test cell to an isotonic pH 7.4 receptor phase was measured over a period of about eight hours by sampling the solution in the receptor phase, assaying this solution for drug by direct ultraviolet assay method and calculating the drug concentration over time, thereafter plotting the drug diffused per square centimeter versus time and calculating the regression line.
From the calculated concentration of the timolol base, the previously determined values for D and K and the known thickness of the membrane, the steady state flux was calculated (equation (1)). Thereafter, the steady state flux was determined experimentally by measuring the transport of timolol at each pH from the buffer system into an isotonic receptor phase through the silicone membrane.

[5] = Concentration of timolol base in aqueous buffer solutions calculated with the Henderson-Hasselbalch equation; format: physicochemical; settings: pH 9.0; 15 mg/ml timolol maleate in aqueous buffer
Description: where T is the time lag. Thus, after determining T, D may be calculated. By experimentally determining flux, and substituting in equation (1), K may be obtained. Having thus determined K and D, the desired flux may be achieved by making appropriate modifications of the pH, thereby the concentration, and/or the thickness of the membrane. The appropriate modifications in pH may be arrived at by preparing a series of buffer solutions containing a known quantity of the salt form of drug at various pH values and substituting in the Henderson-Hasselbalch equation, [formula] C, the concentration of the unionized form, may be calculated.

[6] = Solubility of timolol maleate in pH controlled glycol reservoir vehicles; format: physicochemical
[7] = format: physicochemical; settings: not told
Method: Several pH controlled reservoir systems were prepared in a similar manner employing non-aqueous or aqueous glycol vehicles and different buffering agents. For this example, sorbitol USP and 70 percent aqueous propylene glycol were employed. The pH was adjusted with either Na2 HPO4 or Na2 CO3. pH measurements were made on a pH meter with a standard glass electrode and the flux determined in a diffusion cell employing a mineral oil soaked Celgard membrane to separate the buffered reservoir from the receptor phase.

CC1=C(CC(=O)O)c2cc(F)ccc2/C1=C\c1ccc([S+](C)[O-])cc1 (centres unmarked) [sulindac]
pKa [1]: 4.7 | product KD [2]: 9.38×10^-4 cm^2 /hr

CC(C)(C)NC[C@H](O)COc1nsnc1N1CCOCC1 [timolol]
solubility ([3]; organic solvent or mixture, 32° C.): ~7 mg/mL (≈ 22.1 mM) | partition coefficient between drug reservoir and membrane, K [4]: 2.05 | time lag, T ([4]; aqueous solution of 7.0 mg/ml timolol, 1.5 mil silicone membrane, plot extrapolated to time axis): 0.0096 h | drug diffusion coefficient in the membrane, D ([4]; silicone membrane, from equations (1) and (2)): 2.5×10^-4 cm^2 /hr | Cs Timolol Base [5]: 4210 µg/mL

CC(C)(C)NC[C@H](O)COc1nsnc1N1CCOCC1 [timolol maleate]
solubility ([6]; 70% propylene glycol + na2co3, organic solvent or mixture, 70% Propylene glycol +Na2 CO3, apparent pH 7.6): 124 mg/mL | solubility ([6]; sorbitol usp + na2co3, Sorbitol USP +Na2 CO3, apparent pH 9.6): 0.7 mg/mL | solubility ([6]; sorbitol usp + na2hpo4, Sorbitol USP +Na2 HPO4, apparent pH 6.9): 17.2 mg/mL | solubility in mineral oil [3]: substantially insoluble | Jobs (flux) ([7]; pH 6.9): 6.7 mcg/cm^2 /hr | Jobs (flux) ([7]; pH 7.6): 7.4 mcg/cm^2 /hr | Jobs (flux) ([7]; pH 9.6): 2.8 mcg/cm^2 /hr
